Laboratory results as given in patent US11325937B2, “Glycoside compound and preparation method therefor, composition, application, and intermediate” (SHANGHAI HUTCHISON PHARMACEUTICALS LIMITED, priority 2018, dated 2022).

System: VEGF-A mRNA expression in macrophages (RAW264.7)
Assay: In vitro macrophage experiment: activity of compounds to promote VEGF-A mRNA expression (RT-qPCR)
Type: cell-based
Details: Mus musculus, RAW264.7 macrophages, 3 h, no drug = 1, read-out: Expression level of VEGF-A mRNA; for fold induction at 1 µM: relative expression 2^-ΔΔCt; for fold induction at 100 µM: 0.1 mM; for fold induction at 100 µM / fold induction at 500 µM / fold induction at 1000 µM / fold induction at 2000 µM / fold induction at 3000 µM: relative expression; for fold induction at 500 µM: 0.5 mM; for fold induction at 1000 µM: 1 mM; for fold induction at 2000 µM: 2 mM; for fold induction at 3000 µM: 3 mM
From the text: 1.1. Specific steps for activity screening: 1-10×10^6 macrophages (RAW264.7) in logarithmic growth phase were transferred to a cell culture plate. The test compounds (Compounds TG-001, TG-002, TG-003, TG-004, TG-005, TG-006, TG-007, TG-008, TG-009, TG-010, TG-011, TG-012, TG-013, TG-014, TG-015, TG-016, TG-017, TG-018, TG-019, TG-020, TG-021, TG-022, TG-023, TG-024, TG-025, TG-026, TG-027, TG-028, TG-029, TG-030, TG-031, TG-032, TG-033, TG-034, TG-035, TG-036, TG-037, TG-045, TG-039, TG-040 TG-041, TG-042, TG-043, TG-044, TG-045, TG-052, TG-053, TG-054, TG-047, TG-048, TG-046, TG-049, TG-050, TG-051, TG-055 and TG-056) were respectively diluted into various concentrations, and separately added to the cell culture plate containing macrophage. The cells were cultured for 3 h in a complete medium (RPMI 1640 medium:fetal bovine serum:tri-resistance screening agent (i.e. penicillin-streptomycin-gentamicin, Beijing Leagene Biotechnology Co., Ltd.)=89:10:1 based on volume) in a cell incubator at 37° C. and 5% CO2. The cells were lyzed by Trizol (Beijing ComWin Biotech Co., Ltd) to extract RNA, and the RNA concentration was measured using a microvolume nucleic acid and protein analyzer (Nanodrop2000c). The required volume V of RNA was calculated according to the RNA concentration, and the RNA reverse transcription reaction system was prepared according to Table 1. Then RNA reverse transcription (cDNA synthesis) (RT Easy™ I (For first-strand cDNA synthesis) Reverse Transcription Kit, Chengdu ForeGene Biotechnology Co., Ltd.) was carried out according to the conditions described in Table 2. The resulting cDNA was used to prepare a fluorescence quantitative PCR reaction solution according to Table 3. The fluorescence quantitative PCR reaction conditions were set according to Table 4, and the fluorescence quantitative PCR reaction (Real time PCR Easy™-SYBR Green Fluorescence Quantification Kit, Chengdu ForeGene Biotechnology Co., Ltd.) was performed using cDNA from the reverse transcription reaction as a template. The relative expression level 2^−ΔΔCt of the target gene was calculated from the Ct value of each sample with the blank control group as a control and β-Actin as an internal reference.
Based on the maximum level of VEGF-A mRNA expression promoted by a drug at a certain concentration, the activity of the drug was determined. The expression level of VEGF-A mRNA in macrophages was defined as 1 when no drug was added. Using a traditional Chinese medicine injection Salvianolate that is used in the treatment of Cardio-cerebrovascular disease and promotes a maximum level of VEGF-A mRNA expression of 6 in macrophages (the results are shown in Table 5) as a judgment standard, the compound promoting a maximum level of VEGF-A mRNA expression of 4 or more in macrophage was a target compound. That is, when the maximum level of VEGF-A mRNA expression in macrophages promoted by the test compound is over 4-fold higher than the expression level of VEGF-A mRNA in macrophages without the addition of the test compound, the test compound was a preliminary target compound promoting angiogenesis.

Row | Structure (SMILES) | fold induction at 1 µM | fold induction at 100 µM | fold induction at 500 µM | fold induction at 1000 µM | fold induction at 2000 µM | fold induction at 3000 µM
1 | COc1ccccc1CCCCO[C@@H]1O[C@H](CO)[C@@H](O)[C@H](O)[C@H]1O [TG-001] | 3.68 | 1.65 | 7.89 | 1.91 | 2.36 | 0.68
2 | COc1cc(CCCCO[C@@H]2O[C@H](CO)[C@@H](O)[C@H](O)[C@H]2O)cc(OC)c1 [TG-002] | 1.71 | 1.68 | 1.88 | 1.21 | 0.44 | 0.73
3 | COc1cccc(CCCCO[C@@H]2O[C@H](CO)[C@@H](O)[C@H](O)[C@H]2O)c1 [TG-004] | 0.9 | 0.4 | 0.73 | 1.11 | 4.29 | 2.66
4 | COc1ccc(CCCCCO[C@@H]2O[C@H](CO)[C@@H](O)[C@H](O)[C@H]2O)cc1 [TG-005] | 0.91 | 0.36 | 2.64 | 1.15 | 1.3 | 2.39
5 | COc1ccc(CCCCCCO[C@@H]2O[C@H](CO)[C@@H](O)[C@H](O)[C@H]2O)cc1 [TG-006] | 3.86 | 1.92 | 2.48 | 0.7 | 0.48 | 0.44
6 | COc1cc(CCCCO[C@@H]2O[C@H](CO)[C@@H](O)[C@H](O)[C@H]2O)cc(OC)c1OC [TG-007] | 4.38 | 1.67 | 1.42 | 2.87 | 0.65 | 0.99
7 | OC[C@H]1O[C@@H](OCCCCc2ccc3c(c2)OCO3)[C@H](O)[C@@H](O)[C@@H]1O [TG-008] | 3.34 | 1.38 | 1.42 | 0.61 | 6.28 | 5.46
8 | OC[C@H]1O[C@@H](OCCCCC2CCCCC2)[C@H](O)[C@@H](O)[C@@H]1O [TG-009] | 1.29 | 1.28 | 0.95 | 1 | 1.61 | 5.94
9 | OC[C@H]1O[C@@H](OCCCCc2ccc(F)cc2)[C@H](O)[C@@H](O)[C@@H]1O [TG-010] | 0.98 | 0.68 | 0.69 | 1.48 | 5.31 | 9.78
10 | O=[N+]([O-])c1ccc(CCCCO[C@@H]2O[C@H](CO)[C@@H](O)[C@H](O)[C@H]2O)cc1 [TG-011] | 1.75 | 1.18 | 1.3 | 0.46 | 1.24 | 0.55
11 | OC[C@H]1O[C@@H](OCCCCc2ccc(Br)cc2)[C@H](O)[C@@H](O)[C@@H]1O [TG-012] | 1.99 | 2.31 | 3.14 | 0.5 | 2.08 | 4.38
12 | OC[C@H]1O[C@@H](OCCCCc2ccc(OCc3ccccc3)cc2)[C@H](O)[C@@H](O)[C@@H]1O [TG-013] | 1.44 | 2.51 | 3.98 | 3.3 | 3.23 | 2.44
13 | C=CCOc1ccc(CCCCO[C@@H]2O[C@H](CO)[C@@H](O)[C@H](O)[C@H]2O)cc1 [TG-015] | 1.58 | 1.26 | 2.18 | 4.3 | 1.65 | 1.53
14 | OC[C@H]1O[C@@H](OCCCCc2ccc(OCC3CCCCC3)cc2)[C@H](O)[C@@H](O)[C@@H]1O [TG-016] | 3.09 | 1 | 1.34 | 1.54 | 2.77 | 17.1
15 | OC[C@H]1O[C@@H](OCCCCc2ccc(OCc3cccnc3)cc2)[C@H](O)[C@@H](O)[C@@H]1O [TG-017] | 1.54 | 1.29 | 2.55 | 5.9 | 2.29 | 2.48
16 | OC[C@H]1O[C@@H](OCCCCc2ccc(OCC3CCCC3)cc2)[C@H](O)[C@@H](O)[C@@H]1O [TG-018] | 0.88 | 3.62 | 4.15 | 5.26 | 7.24 | 6.53
17 | OC[C@H]1O[C@@H](OCCCCc2ccc(OCc3ccncc3)cc2)[C@H](O)[C@@H](O)[C@@H]1O [TG-019] | 0.74 | 0.72 | 1.03 | 5.2 | 7.03 | 2.92
18 | OC[C@H]1O[C@@H](OCCCCc2ccc(OCC3CCOCC3)cc2)[C@H](O)[C@@H](O)[C@@H]1O [TG-020] | 0.88 | 0.93 | 2.8 | 3.9 | 2.24 | 2.56
19 | OC[C@H]1O[C@@H](OCCCCc2ccc(OCC3CCC3)cc2)[C@H](O)[C@@H](O)[C@@H]1O [TG-021] | 0.87 | 2.69 | 3.81 | 4.24 | 9.2 | 7.96
20 | OC[C@H]1O[C@@H](OCCCCc2ccc(OCc3ccccn3)cc2)[C@H](O)[C@@H](O)[C@@H]1O [TG-022] | 2.31 | 0.91 | 1.43 | 1.68 | 1.89 | 0.66
21 | OC[C@H]1O[C@@H](OCCCCc2ccc(O)cc2)[C@H](O)[C@@H](O)[C@@H]1O [TG-023] | 0.16 | 0.55 | 0.71 | 0.5 | 0.19 | 0.71
22 | CCOc1ccc(CCCCO[C@@H]2O[C@H](CO)[C@@H](O)[C@H](O)[C@H]2O)cc1 [TG-024] | 1.82 | 1.14 | 1.64 | 4.86 | 8.38 | 4.32
23 | OC[C@H]1O[C@@H](OCCCCc2ccc(OCC3COC3)cc2)[C@H](O)[C@@H](O)[C@@H]1O [TG-025] | 1.62 | 1.78 | 1.43 | 2.15 | 9.69 | 2.06
